# Tests used:
# Assay type in all cases: functional
# Bacillus subtilis = assay: Antibacterial activity against Bacillus subtilis after 18 hrs by broth microdilution method
# Escherichia coli = assay: Antibacterial activity against Escherichia coli after 18 hrs by broth microdilution method
# Pseudomonas aeruginosa = assay: Antibacterial activity against Pseudomonas aeruginosa after 18 hrs by broth microdilution method
# Staphylococcus aureus = assay: Antibacterial activity against Staphylococcus aureus after 18 hrs by broth microdilution method
SMILES,MIC50 (Bacillus subtilis) [µg/mL],MIC50 (Escherichia coli) [µg/mL],MIC50 (Pseudomonas aeruginosa) [µg/mL],MIC50 (Staphylococcus aureus) [µg/mL]
O=C(CSC(=S)N[C@H]1CCOC1=O)Nc1cccc([N+](=O)[O-])c1,6.29,12.8,59.9,8.67
O=C(CSC(=S)N[C@H]1CCOC1=O)Nc1cccc(C(F)(F)F)c1,1.44,> 128,> 128,5.81
O=C(CSC(=S)N[C@H]1CCOC1=O)Nc1ccc(Cl)cc1,> 128,> 128,> 128,3.5
COc1ccc(NC(=O)CSC(=S)N[C@H]2CCOC2=O)cc1,> 128,54.2,> 128,9.52
O=C(CSC(=S)N[C@H]1CCOC1=O)Nc1ccccc1,47.9,> 128,48.5,7.72
CCCCCCCCCCCCSC(=S)N[C@H]1CCOC1=O,> 128,> 128,> 128,50.6
CCCCCCCCCCCCCCSC(=S)N[C@H]1CCOC1=O,> 128,67.8,> 128,> 128
O=C(CSC(=S)N[C@H]1CCOC1=O)Nc1cccc(Cl)c1,> 128,> 128,> 128,> 128
CCCCSC(=S)N[C@H]1CCOC1=O,> 128,> 128,44.6,> 128
Cc1ccc(NC(=O)CSC(=S)N[C@H]2CCOC2=O)cc1,> 128,30.6,63.8,3.49
O=C(CSC(=S)N[C@H]1CCOC1=O)Nc1ccccc1Cl,9.63,> 128,> 128,5.62
CCCCCCSC(=S)N[C@H]1CCOC1=O,> 128,> 128,> 128,> 128
Cc1cccc(NC(=O)CSC(=S)N[C@H]2CCOC2=O)c1C,> 128,> 128,> 128,> 128
CCCCCCCCSC(=S)N[C@H]1CCOC1=O,> 128,> 128,> 128,> 128
Cc1cccc(NC(=O)CSC(=S)N[C@H]2CCOC2=O)c1,> 128,> 128,37.2,> 128
O=C(CSC(=S)N[C@H]1CCOC1=O)Nc1ccc(Cl)cc1Cl,5.6,21,> 128,4.9
CSC(=S)N[C@H]1CCOC1=O,> 128,17.6,31.9,> 128
C[C@H]1COc2c(N3CCN(C)CC3)c(F)cc3c(=O)c(C(=O)O)cn1c23.C[C@H]1COc2c(N3CCN(C)CC3)c(F)cc3c(=O)c(C(=O)O)cn1c23.O [LEVOFLOXACIN],< 0.25,< 0.25,< 0.25,< 0.25
O=C(CSC(=S)N[C@H]1CCOC1=O)Nc1ccccc1F,> 128,40.5,> 128,6.53
CCSC(=S)N[C@H]1CCOC1=O,> 128,25.2,34.6,> 128
O=C(CSC(=S)N[C@H]1CCOC1=O)Nc1ccc(Br)cc1,30.2,24.9,54.5,3.69

# Source: ChEMBL document CHEMBL2401621, “Design, synthesis and antibacterial evaluation of novel AHL analogues” (2013)
